Target: urease enzyme (Canavalia ensiformis, UniProt P07374)
Settings: for %age Activity at 25 μg (urease inhibition): 25 µg/mL; for %age Activity at 50 μg (urease inhibition): 50 µg/mL

urease enzyme, sequence (P07374 whole entry, looked up): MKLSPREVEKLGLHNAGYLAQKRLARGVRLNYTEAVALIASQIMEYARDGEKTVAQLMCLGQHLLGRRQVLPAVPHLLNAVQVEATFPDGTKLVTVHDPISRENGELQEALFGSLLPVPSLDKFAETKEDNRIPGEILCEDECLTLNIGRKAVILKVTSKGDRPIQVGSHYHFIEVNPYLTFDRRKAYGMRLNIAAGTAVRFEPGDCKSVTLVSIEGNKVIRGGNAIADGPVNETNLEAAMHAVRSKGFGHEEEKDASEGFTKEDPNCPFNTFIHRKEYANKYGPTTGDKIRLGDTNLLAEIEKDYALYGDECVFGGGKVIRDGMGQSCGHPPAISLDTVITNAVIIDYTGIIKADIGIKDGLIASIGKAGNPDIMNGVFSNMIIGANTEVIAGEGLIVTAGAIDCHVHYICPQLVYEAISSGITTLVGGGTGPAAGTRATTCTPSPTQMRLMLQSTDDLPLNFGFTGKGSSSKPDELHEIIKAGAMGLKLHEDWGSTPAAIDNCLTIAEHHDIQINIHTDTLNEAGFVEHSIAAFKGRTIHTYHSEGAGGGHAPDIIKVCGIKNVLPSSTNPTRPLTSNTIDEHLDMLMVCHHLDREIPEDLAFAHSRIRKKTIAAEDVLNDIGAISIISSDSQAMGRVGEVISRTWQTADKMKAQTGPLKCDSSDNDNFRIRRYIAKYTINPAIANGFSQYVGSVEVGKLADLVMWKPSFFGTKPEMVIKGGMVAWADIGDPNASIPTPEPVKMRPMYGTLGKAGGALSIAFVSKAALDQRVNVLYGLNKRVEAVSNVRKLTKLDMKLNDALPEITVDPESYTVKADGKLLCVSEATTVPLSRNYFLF

Row | SMILES | %age Activity at 25 μg (urease inhibition) [%] | %age Activity at 50 μg (urease inhibition) [%]
1 | Cc1ccc(-c2csc(C=O)c2)cc1 [2e, 4-p-Tolylthiophene-2-carbaldehyde] | 44.5 ± 0.057 | 76.5 ± 0.05
2 | Cc1ccc(-c2csc(C=O)c2)s1 [2j, 5-Methyl-2,3-bisthiophene-5-carbaldehyde] | 2 ± 0.219 | 9.7 ± 0.2
3 | N#Cc1cc(-c2csc(C=O)c2)cc(C(F)(F)F)c1 [2d, 3-(5-Formylthiophene-3-yl)-5-(trifloromethyl)benzonitrile] | 37 ± 0.0042 | 88.7 ± 0.005
4 | COc1ccc(-c2csc(C=O)c2)cc1 [2f, 4-(4-Methoxyphenyl)thiophene-2-carbaldehyde] | 42.3 ± 0.0007 | 80.2 ± 0.0017
5 | O=Cc1cc(-c2ccc(F)c(Cl)c2)cs1 [2i, 4-(3-Chloro-4-fluorophenyl)thiophene-2-carbaldehyde] | 46.2 ± 0.0042 | 90.6 ± 0.05
6 | O=Cc1cc(-c2ccc(Cl)c(Cl)c2)cs1 [2h, 4-(3,4-Dichlorophenyl)thiophene-2-carbaldehyde] | 44 ± 0.084 | 86.4 ± 0.44
7 | O=Cc1cc(-c2cc(C(F)(F)F)cc(C(F)(F)F)c2)cs1 [2b, 4-(3,5-Bis(trifloromethyl)phenyl)thiophene-2-carbaldehyde] | 35 ± 0.014 | 87.0 ± 0.084
8 | O=Cc1cc(-c2ccc(Cl)s2)cs1 [2c] | 44 ± 0.0042 | 87.8 ± 0.006
9 | Cc1cc(C)cc(-c2csc(C=O)c2)c1 [2g, 4-(3,5-Dimethylphenyl)thiophene-2-carbaldehyde] | 42.5 ± 0.0070 | 87.2 ± 0.5
10 | O=Cc1cc(-c2ccccc2)cs1 [2a, 4-Phenylthiophene-2-carbaldehyde] | 45 ± 0.0162 | 86.9 ± 0.012
